# Tests used:
# TpCADE [1] = biological target: TpCADE (Trueperella pyogenes, UniProt Z9JAQ5MWQ7); test: coupled glucose oxidase assay; format: biochemical; conditions: hydrolysis of the alpha-1,3-linkages
# TpCADE [2] = conditions: hydrolysis of the alpha-1,3-linkages
substance,measurement,setting,value
cycloalternan,Km,TpCADE [1],2.1 ± 0.2 mM
same,Km,TpCADE [2],9.3 ± 1.5 mM
